Values joined by “and” are separate entries in the source; they are usually repeats but may differ in a detail not shown here. Identical values can stand only once.
Legend:
Type in all cases: cell-based
GPR139 (Gq activation) = target: T1, GPR139 (Gq activation) (Homo sapiens, UniProt Q6DWJ6); test: BRET G protein activation (dissociation) assay, Gq, HEK293A; details: for G protein activation, Gq: individual replicates, listed as JNJ (S)
T1 construct: expressed in transfected cells; host or cells: HEK293A (transient, Lipofectamine 2000)
T1 sequence (Q6DWJ6 1-353): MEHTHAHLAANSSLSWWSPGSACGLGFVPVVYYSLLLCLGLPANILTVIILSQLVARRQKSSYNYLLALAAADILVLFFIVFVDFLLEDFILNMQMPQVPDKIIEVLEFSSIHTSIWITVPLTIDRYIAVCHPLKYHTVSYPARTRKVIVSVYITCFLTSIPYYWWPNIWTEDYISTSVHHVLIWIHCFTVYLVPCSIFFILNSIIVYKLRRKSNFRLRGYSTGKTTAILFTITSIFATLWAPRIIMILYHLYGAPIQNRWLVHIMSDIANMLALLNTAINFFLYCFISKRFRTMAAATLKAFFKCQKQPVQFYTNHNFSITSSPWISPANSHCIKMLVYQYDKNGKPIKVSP
Procedure: (§1) Primary screening and pharmacological characterization of compounds were performed using a CHO-K1 cell line that stably expresses human GPR139 (GPR139-CHOk1). The GPR139-CHOk1 cell line was kindly provided by H. Lundbeck A/S, Denmark[24]. GPR139-CHOk1 cells were grown in Ham’s F-12 Kaighn’s Modification Medium (ThermoFisher #21127030) supplemented with 10% dialyzed fetal bovine serum (US origin, ThermoFisher #26400044), 100 units/mL Penicillin-Streptomycin (ThermoFisher #15140122), and 1 mg/mL Geneticin (ThermoFisher #11811031). […] M1R-CHOk1 cells were purchased from The Missouri S&T cDNA Resource Center (#CEM100TN00). M1R-CHOk1 cells were grown in Ham’s F12 Medium (ThermoFisher #21765029) supplemented with 10% fetal bovine serum (Brazilian origin, ThermoFisher #10270106), 100 units/mL Penicillin-Streptomycin, and 0.25 mg/mL Geneticin. HEK293A cells transiently transfected with GPR139 were used for additional pharmacological assessment of signaling pathways activated by GPR139. HEK239A cells were generously provided by Dr. Asuka Inoue, Tohoku University, Japan. HEK293A cells were grown in Dulbecco’s Modified Eagle Medium (ThermoFisher #31966047) supplemented with 10% dialyzed fetal bovine serum and 100 units/mL Penicillin-Streptomycin. Cell lines were maintained at 37 °C in humidified incubator equilibrated with 5% CO2.
(§2) The G protein dissociation assay developed by the lab of Kirill A. Martemyanov was used to measure the coupling of multiple G proteins by GPR139[57]. The assay was performed as described previously with minor modifications. HEK293A cells were reverse transfected 20–24 h prior to assay. 50,000 cells were plated in each well of white opaque tissue culture treated 96-well plates (PerkinElmer #6005680) previously coated with poly-D-lysine. Transfection solutions were prepared as described, and 10 µL transfection solution was mixed with 100 µL cells in each well. The cells in each well were transfected with 18.9 ng GPR139, 6.3 ng Venus 1-155 Gγ2, 6.3 ng Venus 159-239 Gβ1, 6.3 ng masGRK3ct-NanoLuc and 12.6 ng Gαi2, 12.6 ng Gαi3, 12.6 ng GαoA, 12.6 ng Gαq or 25.2 ng Gα12 using 375 nL Lipofectamine 2000 Transfection Reagent. Transfections with Gαq and Gα12 contained 6.3 ng DNA of the active subunit S1 of pertussis toxin (PTX-S1). Each transfection was normalized to 150 ng total DNA with pcDNA3.1. The BRET biosensors were a kind gift from the Martemyanov lab. On the day of the experiment the cells were washed with HEPES buffer. Test compounds were diluted in HEPES buffer from DMSO stocks (final DMSO concentration of maximally 0.3%). NanoLuc Luciferase substrate NanoGlo—furimazine (Promega #N1120) was diluted 1000-fold (final) in HEPES buffer. NanoGlo and test compounds were added, and measurements were performed after 10 s for Gi3, 15 s for Gi2 and GoA, 20 s for Gq, and 90 s for G12—the timepoint where maximal signal occurred with each G protein, ensuring proper determination of the potency for the G protein coupling. Simultaneous dual emission was measured at 535 nm and 475 nm on LUMIstar Omega Microplate Reader (BMG Labtech) at room temperature. The BRET ratio of 535 nm/475 nm (Venus/NanoLuc), reflecting the dissociation of the G protein heterotrimer, was used to determine the G protein activation. The basal BRET ratio obtained with buffer condition was subtracted from the absolute BRET ratio at a given test compound concentration, and the responses were normalized to the one obtained with 10 µM JNJ-63533054 for the activation of Gi2.
(§3) Pharmacological data and statistical analyses were performed in GraphPad Prism v9–10 (Graphpad Software Inc., San Diego, CA), which are also specifically described in the figure and table legends. […]

GPR139 (GoA activation) = target: T2, GPR139 (GoA activation) (Homo sapiens, UniProt Q6DWJ6); test: BRET G protein activation (dissociation) assay, GoA, HEK293A; details: for G protein activation, GoA: individual replicates, listed as JNJ (S)
T2 construct: expressed in transfected cells; host or cells: HEK293A (transient, Lipofectamine 2000)
T2 sequence (Q6DWJ6 1-353): T1 sequence (Q6DWJ6 1-353)
Procedure: as §1, §2, §3

GPR139 (Gi3 activation) = target: T3, GPR139 (Gi3 activation) (Homo sapiens, UniProt Q6DWJ6); test: BRET G protein activation (dissociation) assay, Gi3, HEK293A; details: for G protein activation, Gi3: individual replicates, listed as JNJ (S)
T3 construct: expressed in transfected cells; host or cells: HEK293A (transient, Lipofectamine 2000)
T3 sequence (Q6DWJ6 1-353): T1 sequence (Q6DWJ6 1-353)
Procedure: as §1, §2, §3

[1] = HEK293-A, normalized to JNJ-63533054 (JNJ(S))

## CC(NC(=O)CNC(=O)c1cccc(Cl)c1)c1ccccc1 (stereo not drawn) [JNJ-63533054, reference compound]
GPR139 (Gq activation); [1]
  Emax: 42 ± 3%
GPR139 (Gq activation); Supplementary Table 6
  EC50: 0.158 µM
GPR139 (Gq activation); log [compound] M -4.5
  G protein activation, Gq: 40 % of JNJ-63533054 at Gi2 and 47 % of JNJ-63533054 at Gi2 and 36 % of JNJ-63533054 at Gi2
GPR139 (Gq activation); log [compound] M -5.0
  G protein activation, Gq: 40 % of JNJ-63533054 at Gi2 and 47 % of JNJ-63533054 at Gi2 and 39 % of JNJ-63533054 at Gi2
GPR139 (Gq activation); log [compound] M -5.5
  G protein activation, Gq: 42 % of JNJ-63533054 at Gi2 and 44 % of JNJ-63533054 at Gi2 and 32 % of JNJ-63533054 at Gi2
GPR139 (Gq activation); log [compound] M -6.0
  G protein activation, Gq: 39 % of JNJ-63533054 at Gi2 and 42 % of JNJ-63533054 at Gi2 and 31 % of JNJ-63533054 at Gi2
GPR139 (Gq activation); log [compound] M -6.5
  G protein activation, Gq: 29 % of JNJ-63533054 at Gi2 and 32 % of JNJ-63533054 at Gi2 and 23 % of JNJ-63533054 at Gi2
GPR139 (Gq activation); log [compound] M -7.0
  G protein activation, Gq: 17 % of JNJ-63533054 at Gi2 (2×) and 9 % of JNJ-63533054 at Gi2
GPR139 (Gq activation); log [compound] M -7.5
  G protein activation, Gq: 5.47 % of JNJ-63533054 at Gi2 and 7 % of JNJ-63533054 at Gi2 and 1.27 % of JNJ-63533054 at Gi2
GPR139 (Gq activation); log [compound] M -8.0
  G protein activation, Gq: 1.82 % of JNJ-63533054 at Gi2 and 0.745 % of JNJ-63533054 at Gi2 and -0.2 % of JNJ-63533054 at Gi2
GPR139 (GoA activation); [1]
  Emax: 114 ± 2%
GPR139 (GoA activation); Supplementary Table 6
  EC50: 0.0794 µM
GPR139 (GoA activation); log [compound] M -4.5
  G protein activation, GoA: 119 % of JNJ-63533054 at Gi2 (2×) and 112 % of JNJ-63533054 at Gi2
GPR139 (GoA activation); log [compound] M -5.0
  G protein activation, GoA: 117 % of JNJ-63533054 at Gi2 (2×) and 106 % of JNJ-63533054 at Gi2
GPR139 (GoA activation); log [compound] M -5.5
  G protein activation, GoA: 113 % of JNJ-63533054 at Gi2 and 106 % of JNJ-63533054 at Gi2 (2×)
GPR139 (GoA activation); log [compound] M -6.0
  G protein activation, GoA: 108 % of JNJ-63533054 at Gi2 and 94 % of JNJ-63533054 at Gi2 and 102 % of JNJ-63533054 at Gi2
GPR139 (GoA activation); log [compound] M -6.5
  G protein activation, GoA: 97 % of JNJ-63533054 at Gi2 and 82 % of JNJ-63533054 at Gi2 and 91 % of JNJ-63533054 at Gi2
GPR139 (GoA activation); log [compound] M -7.0
  G protein activation, GoA: 74 % of JNJ-63533054 at Gi2 and 64 % of JNJ-63533054 at Gi2 and 65 % of JNJ-63533054 at Gi2
GPR139 (GoA activation); log [compound] M -7.5
  G protein activation, GoA: 43 % of JNJ-63533054 at Gi2 and 34 % of JNJ-63533054 at Gi2 and 33 % of JNJ-63533054 at Gi2
GPR139 (GoA activation); log [compound] M -8.0
  G protein activation, GoA: 17 % of JNJ-63533054 at Gi2 and 12 % of JNJ-63533054 at Gi2 and 13 % of JNJ-63533054 at Gi2
GPR139 (Gi3 activation); [1]
  Emax: 56 ± 4%
GPR139 (Gi3 activation); Supplementary Table 6, read-out: pEC50 Gi3 (converted)
  EC50: 0.1 µM
GPR139 (Gi3 activation); log [compound] M -4.5
  G protein activation, Gi3: 63 % of JNJ-63533054 at Gi2 and 48 % of JNJ-63533054 at Gi2 and 54 % of JNJ-63533054 at Gi2
GPR139 (Gi3 activation); log [compound] M -5.0
  G protein activation, Gi3: 59 % of JNJ-63533054 at Gi2 and 44 % of JNJ-63533054 at Gi2 and 57 % of JNJ-63533054 at Gi2
GPR139 (Gi3 activation); log [compound] M -5.5
  G protein activation, Gi3: 57 % of JNJ-63533054 at Gi2 and 41 % of JNJ-63533054 at Gi2 and 51 % of JNJ-63533054 at Gi2
GPR139 (Gi3 activation); log [compound] M -6.0
  G protein activation, Gi3: 52 % of JNJ-63533054 at Gi2 and 39 % of JNJ-63533054 at Gi2 and 42 % of JNJ-63533054 at Gi2
GPR139 (Gi3 activation); log [compound] M -6.5
  G protein activation, Gi3: 48 % of JNJ-63533054 at Gi2 and 28 % of JNJ-63533054 at Gi2 and 40 % of JNJ-63533054 at Gi2
GPR139 (Gi3 activation); log [compound] M -7.0
  G protein activation, Gi3: 37 % of JNJ-63533054 at Gi2 and 22 % of JNJ-63533054 at Gi2 and 29 % of JNJ-63533054 at Gi2
GPR139 (Gi3 activation); log [compound] M -7.5
  G protein activation, Gi3: 26 % of JNJ-63533054 at Gi2 and 11 % of JNJ-63533054 at Gi2 and 24 % of JNJ-63533054 at Gi2
GPR139 (Gi3 activation); log [compound] M -8.0
  G protein activation, Gi3: 10 % of JNJ-63533054 at Gi2 and 5.6 % of JNJ-63533054 at Gi2 and 14 % of JNJ-63533054 at Gi2
